In test [1] the target is 5-hydroxytryptamine receptor 7 (Homo sapiens, UniProt P34969). Kind of test: Binding affinity against 5-Hydroxy tryptamine 7 receptor.
Test [2] addresses D(2) dopamine receptor (Homo sapiens, UniProt P14416). Kind of test: Binding affinity against D2L receptor.
The target of test [3] is 5-hydroxytryptamine receptor 2C (Rattus norvegicus) (UniProt P08909). Kind of test: Binding affinity against 5-Hydroxy tryptamine 2C receptor.
Test [4] concerns the target Adrenergic receptor alpha-1 (Rattus norvegicus). Put plainly: Binding affinity against Alpha1 adrenergic receptor.

Where only a bound is given, the exact number is not on record here.

What is called Ki is a measure of affinity in units of concentration, obtained from inhibition or displacement. The low end stands for a stronger hold on the target, the high end for a looser hold on the target.

5-hydroxytryptamine receptor 2C (Rattus norvegicus), sequence (P08909 whole entry, looked up): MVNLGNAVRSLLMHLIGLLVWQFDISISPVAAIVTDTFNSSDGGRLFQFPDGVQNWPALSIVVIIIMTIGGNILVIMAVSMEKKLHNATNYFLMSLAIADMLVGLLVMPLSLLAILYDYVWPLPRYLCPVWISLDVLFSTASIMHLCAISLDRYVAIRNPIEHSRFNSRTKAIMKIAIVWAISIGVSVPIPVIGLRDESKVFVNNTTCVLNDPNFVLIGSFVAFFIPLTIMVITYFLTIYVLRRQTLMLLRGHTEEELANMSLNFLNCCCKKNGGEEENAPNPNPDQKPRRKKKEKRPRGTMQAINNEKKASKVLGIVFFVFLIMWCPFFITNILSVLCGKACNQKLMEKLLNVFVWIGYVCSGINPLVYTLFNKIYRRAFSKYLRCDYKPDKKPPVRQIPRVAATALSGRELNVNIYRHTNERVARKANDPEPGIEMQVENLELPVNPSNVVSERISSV
5-hydroxytryptamine receptor 7, sequence (P34969 whole entry): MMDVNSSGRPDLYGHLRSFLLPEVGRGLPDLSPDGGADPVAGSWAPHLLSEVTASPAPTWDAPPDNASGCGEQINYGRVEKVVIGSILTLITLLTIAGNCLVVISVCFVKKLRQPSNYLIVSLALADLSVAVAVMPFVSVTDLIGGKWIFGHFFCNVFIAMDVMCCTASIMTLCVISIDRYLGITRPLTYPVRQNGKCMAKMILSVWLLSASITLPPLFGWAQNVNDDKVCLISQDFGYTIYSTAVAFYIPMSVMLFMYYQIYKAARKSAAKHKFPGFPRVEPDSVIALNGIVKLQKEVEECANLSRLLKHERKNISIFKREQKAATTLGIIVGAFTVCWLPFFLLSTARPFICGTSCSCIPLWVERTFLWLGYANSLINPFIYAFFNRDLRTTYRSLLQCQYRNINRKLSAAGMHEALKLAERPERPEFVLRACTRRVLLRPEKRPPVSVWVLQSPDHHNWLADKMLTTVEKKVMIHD
D(2) dopamine receptor, sequence (P14416 whole entry): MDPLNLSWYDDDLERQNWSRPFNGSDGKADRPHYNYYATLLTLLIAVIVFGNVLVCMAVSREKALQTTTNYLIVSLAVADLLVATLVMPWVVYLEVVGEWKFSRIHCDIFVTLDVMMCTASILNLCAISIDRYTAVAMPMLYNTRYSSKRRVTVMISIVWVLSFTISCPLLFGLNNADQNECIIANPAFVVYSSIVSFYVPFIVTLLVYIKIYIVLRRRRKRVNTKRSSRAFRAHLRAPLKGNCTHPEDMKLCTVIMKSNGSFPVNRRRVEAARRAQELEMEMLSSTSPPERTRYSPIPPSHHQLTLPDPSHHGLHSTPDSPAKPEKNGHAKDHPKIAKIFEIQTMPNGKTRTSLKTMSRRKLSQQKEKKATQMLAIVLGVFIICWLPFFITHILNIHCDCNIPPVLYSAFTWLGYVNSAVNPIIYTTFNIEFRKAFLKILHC

In test [1], `C[C@H](Nc1cc(NCCc2ccc(F)cc2)ccn1)c1ccccc1` yielded a Ki of 4 nM.

`C[C@H](Nc1cccc(NCCOc2ccccc2)n1)c1ccccc1`: in test [1], the Ki is > 1000 nM.

As to `C[C@H](Nc1cncc(NCCOc2ccc(F)cc2)c1)c1ccccc1`, the Ki in test [2] is > 1000 nM; in test [1], 4 nM; in test [3], 476 nM.

As to `C[C@H](Nc1ccnc(NCCOc2ccccc2)n1)c1ccccc1`, in test [1], the Ki was 2 nM.

Take `C[C@H](Nc1cccc(NCCc2ccccc2)n1)c1ccccc1`: in test [1], the inhibition constant (Ki) was > 1000 nM.

In test [1], `CC(Nc1nccc(NCCc2ccccc2)n1)c1ccccc1` (racemic) had a Ki of 6 nM.

As to `C[C@H](Nc1cc(NCCOc2ccc(F)cc2)ncn1)c1ccccc1`, the affinity in test [1], expressed as Ki, was 5 nM. This Ki and that of the compound before are within 1.5-fold of each other.

In test [1], `C[C@H](Nc1ccnc(NCCc2ccccc2)n1)c1ccccc1` had a Ki of 0.6 nM.

`CC(Nc1ccnc(NCCc2ccc(F)cc2)n1)c1ccccc1` (racemic) returned a Ki in test [1] of 6 nM.

As to `C[C@H](Nc1ccnc(NCCOc2ccc(F)cc2)n1)c1ccccc1`, the Ki is > 1000 nM in test [2] and 0.3 nM in test [1].

In test [1], `C[C@H](Nc1ccnc(NCCOc2ccccc2)c1)c1ccccc1` came in with a Ki of 0.4 nM. In other words, the sub-nanomolar range.

With `C[C@H](Nc1cccc(NCCOc2ccccc2)c1)c1ccccc1`, the Ki in test [1] is > 1000 nM.

Turning to `C[C@H](Nc1cncc(NCCc2ccc(F)cc2)c1)c1ccccc1`, in test [1], the Ki came to 16 nM.

In the case of `C[C@H](Nc1ccnc(NCCc2ccccc2)c1)c1ccccc1`, in test [1], the Ki came out at 0.3 nM.

In test [1], `C[C@H](Nc1cc(NCCc2ccccc2)ncn1)c1ccccc1` displayed a Ki of 33 nM.

In test [1], `C[C@H](Nc1ccnc(NCCc2ccc(F)cc2)c1)c1ccccc1` displayed a Ki of 0.4 nM.

Consider `C[C@H](Nc1cc(NCCc2ccc(F)cc2)ncn1)c1ccccc1`, for which, in test [1], the Ki came to 5 nM.

The compound `C[C@H](Nc1cc(NCCOc2ccccc2)ccn1)c1ccccc1` came in with a Ki in test [1] of 0.4 nM.

On to `C[C@H](Nc1cc(NCCc2ccccc2)ccn1)c1ccccc1`, for which the Ki in test [1] worked out at 3 nM.

`C[C@H](Nc1ccnc(NCCOc2ccc(F)cc2)c1)c1ccccc1`: the results for the Ki in test [2], in test [1] and in test [3] were 370 nM, 0.2 nM and 15 nM, respectively.

Take `CC(Nc1nccc(NCCOc2ccc(F)cc2)n1)c1ccccc1` (racemic): the Ki in test [4] is 57 nM; in test [2], > 1000 nM; in test [1] it was 1 nM; in test [3], 40 nM.

Regarding `C[C@H](Nc1cccc(NCCc2ccccc2)c1)c1ccccc1`, in test [1], the Ki is > 1000 nM.

With `C[C@H](Nc1cc(NCCOc2ccc(F)cc2)ccn1)c1ccccc1`, the Ki is > 1000 nM in test [2], 0.4 nM in test [1] and 13 nM in test [3].

For the compound `C[C@H](Nc1cncc(NCCc2ccccc2)c1)c1ccccc1`, affinity in test [1] was put at a Ki of 13 nM.

The compound `C[C@H](Nc1cncc(NCCOc2ccccc2)c1)c1ccccc1` had a Ki in test [1] of 4 nM.

For the origin of these results see ChEMBL document CHEMBL1138823, “Diaminopyrimidine and diaminopyridine 5-HT7 ligands” (Bioorg Med Chem Lett, 2004).
